The first experiment addresses T1, CIB1 (Homo sapiens, UniProt Q99828).
Experiment: not given
T1 sequence (Q99828 whole entry): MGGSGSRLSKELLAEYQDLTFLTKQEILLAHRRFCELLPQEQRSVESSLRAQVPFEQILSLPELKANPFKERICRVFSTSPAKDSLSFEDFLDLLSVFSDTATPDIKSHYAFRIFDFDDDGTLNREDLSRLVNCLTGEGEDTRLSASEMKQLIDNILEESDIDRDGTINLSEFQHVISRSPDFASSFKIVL
Take `COc1cccc(OCCCn2cc(C=C3C(=O)NC(=O)N(Cc4ccco4)C3=O)c3ccccc32)c1` [UNC10245380A, COc1cccc(OCCCn2cc(C=C3C(=O)NC(=O)N(Cc4ccco4)C3=O)c3ccccc23)c1]: the Hill slope is 1.5–2.5.

For the next experiment, the target named is T1, CIB1. Description: biochemical.
Text: Binding of the 56 purchased compounds was experimentally assessed in a time-resolved fluorescence energy transfer (TR-FRET) assay (see Fig. 3A and Supplementary data 1). Briefly, it serves as a displacement assay using an AlexaFluor-labeled cyclic CIB1-binding peptide and a Europium (Eu)-labeled Streptavidin donor for attachment to the AviTag biotinylated CIB1 protein (described previously in Puhl et al. and Haberman et al.[47],[62]).
A CIB1 TR-FRET assay uses an AlexaFluor-labeled cyclic CIB1-binding peptide and a Europium (Eu)-labeled Streptavidin donor for attachment to the AviTag biotinylated CIB1 protein. […] Compounds were dispensed into 384-well plates using a Mosquito HTS nanoliter instrument (TTP LABTech) as 3-fold serial dilutions (100x in DMSO, 0.1 μL) for final concentrations ranging from 100 μM to 0.5 nM. Biotinylated CIB1 was diluted to a final concentration of 3 nM in assay buffer (20 mM) TRIS pH 7.5, 150 mM NaCl, 1 mM CaCl, 1 mM CHAPS, and 1 mM DTT (added fresh each time), and 5 μL of diluted protein was added to the wells of the assay plate using a Multidrop Combi Reagent Dispenser (Thermo Scientific) and incubated at room temperature for 20 min. 5 μL detection solution containing 2 nM Lance Eu-Streptavidin (Perkin Elmer) and 30 nM Alexa647-CIB1-phage peptide diluted in assay buffer was added to the wells and incubated 30–60 min at room temperature protected from light. TR-FRET signals were measured using an Envision Multilabel Plate Reader (PerkinElmer; Eu excitation 320 nm, Eu emission 615 nm, Alexa dye emission 665 nm). […] Inhibition curves were analyzed using a four-parameter non-linear curve fit using ScreenAble software, and the mean and standard deviation were calculated. Publication curves were averaged and fit with a four-parameter non-liner curve fit using GraphPad Prism.
For `O=C(NCc1ccc2c(c1)OCO2)C1CCN(S(=O)(=O)c2cccc3nsnc23)CC1` [UNC10245381A, O=C(NCc1ccc2OCOc2c1)C1CCN(CC1)S(=O)(=O)c1cccc2nsnc12], 84 µM corresponded to half-maximal inhibition (IC50).

With `CC(c1nnc(SCC(=O)Nc2ccc(Oc3ccccc3)cc2)n1C)N1C(=O)COc2ccccc21` (centres unmarked) [UNC10245386A, CC(N1C(=O)COc2ccccc12)c1nnc(SCC(=O)Nc2ccc(Oc3ccccc3)cc2)n1C], the IC50 came to 33 µM.

`CC(c1cc(-c2ccccc2)[nH]n1)N(C)C(=O)C1CCN(c2cccc3c2C(=O)N(Cc2cccs2)C3=O)CC1` (centres unmarked) [UNC10245397A, CC(N(C)C(=O)C1CCN(CC1)c1cccc2C(=O)N(Cc3cccs3)C(=O)c12)c1cc([nH]n1)-c1ccccc1] displayed an IC50 of 24 µM.

Molecule `O=C(Nc1cccc2ncccc12)c1cccc(NS(=O)(=O)c2ccc3c(c2)OCCCO3)c1` [UNC10245399A, O=C(Nc1cccc2ncccc12)c1cccc(NS(=O)(=O)c2ccc3OCCCOc3c2)c1] had an IC50 of 59 µM.

The molecule `Cc1ccc(C)c(S(=O)(=O)N2CCN(C(=O)CSc3nnc(-c4ccc5c(c4)OCO5)n3-c3ccccc3)CC2)c1` [UNC10245404A, Cc1ccc(C)c(c1)S(=O)(=O)N1CCN(CC1)C(=O)CSc1nnc(-c2ccc3OCOc3c2)n1-c1ccccc1] gave an IC50 of 14 µM.

In turn, `Cc1noc(C)c1COc1cccc(C(=O)Nc2cccc(S(=O)(=O)Nc3cccc(C(F)(F)F)c3)c2)c1` [UNC10245406A, Cc1noc(C)c1COc1cccc(c1)C(=O)Nc1cccc(c1)S(=O)(=O)Nc1cccc(c1)C(F)(F)F] registered a 50% inhibitory concentration (IC50) of 39 µM.

In the case of `COc1cccc(C(=O)N(CC(=O)Nc2ccc(N3CCN(C(=O)c4ccc(C)cc4)CC3)cc2)Cc2ccc(F)cc2)c1` [UNC10245410A, COc1cccc(c1)C(=O)N(CC(=O)Nc1ccc(cc1)N1CCN(CC1)C(=O)c1ccc(C)cc1)Cc1ccc(F)cc1], the half-maximal inhibitory concentration (IC50) came out at 11 µM.

As for `CN(Cc1ccco1)C(=O)c1ccc(COc2ccc3c(c2)C(c2cccc(F)c2)N(C(=O)C2CC2)CC3)o1` (centres unmarked) [UNC10245413A, CN(Cc1ccco1)C(=O)c1ccc(COc2ccc3CCN(C(c4cccc(F)c4)c3c2)C(=O)C2CC2)o1], 48 µM corresponded to half-maximal inhibition (IC50).

In turn, `CCOC(=O)c1cc(-c2ccc(N3CCN(C(=O)COc4ccccc4)CC3)cc2)n(-c2ccccc2OC)n1` [UNC10245416A, CCOC(=O)c1cc(-c2ccc(cc2)N2CCN(CC2)C(=O)COc2ccccc2)n(n1)-c1ccccc1OC] registered an IC50 of 12 µM.

As to `COc1cccc(CNC(=O)C2CCN(C(=O)[C@@H](Cc3ccccc3)NC(=O)COc3ccccc3)CC2)c1` [UNC10245418A, COc1cccc(CNC(=O)C2CCN(CC2)C(=O)[C@@H](Cc2ccccc2)NC(=O)COc2ccccc2)c1], the IC50 came to 93 µM.

`COc1ccccc1N1CCN(C(=O)CCCc2nnc3n(CC(C)C)c(=O)c4sccc4n23)CC1` [UNC10245420A, COc1ccccc1N1CCN(CC1)C(=O)CCCc1nnc2n(CC(C)C)c(=O)c3sccc3n12] came in with an IC50 of 87 µM.

Take `CCOc1ccccc1NC(=O)Nc1cccc(OCc2cc(=O)n3ccccc3n2)c1` [UNC10245432A, CCOc1ccccc1NC(=O)Nc1cccc(OCc2cc(=O)n3ccccc3n2)c1]: half-maximal inhibition (IC50) was put at 43 µM.

In turn, `Cc1cc(NC(=O)CSc2nc3ccccc3c(=O)n2CC2CCC(C(=O)NCc3ccccc3Cl)CC2)n[nH]1` (centres unmarked) [UNC10245433A, Cc1cc(NC(=O)CSc2nc3ccccc3c(=O)n2CC2CCC(CC2)C(=O)NCc2ccccc2Cl)n[nH]1] yielded an IC50 of 8.8 µM.

`CC1Cc2ccccc2N1C(=O)CC1CCN(S(=O)(=O)c2ccc3c(c2)oc(=O)n3C)CC1` (centres unmarked) [UNC10245457A, CC1Cc2ccccc2N1C(=O)CC1CCN(CC1)S(=O)(=O)c1ccc2n(C)c(=O)oc2c1] displayed a concentration for half-maximal inhibition (IC50) of 44 µM.

Consider `COc1ccccc1OCCC1CCN(C(=O)C2CCN(S(=O)(=O)c3cccc4nonc34)CC2)C1` (centres unmarked) [UNC10245474A, COc1ccccc1OCCC1CCN(C1)C(=O)C1CCN(CC1)S(=O)(=O)c1cccc2nonc12], for which the IC50 came to 75 µM.

The molecule `COc1ccccc1OCCCn1cc(C=C2C(=O)NC(=O)N(Cc3ccco3)C2=O)c2ccccc21` [UNC10245533, COc1ccccc1OCCCn1cc(C=C2C(=O)NC(=O)N(Cc3ccco3)C2=O)c2ccccc12] yielded an IC50 of 9.8 µM.

As to `O=C1NC(=O)N(Cc2ccco2)C(=O)C1=Cc1cn(CCCOc2ccccc2)c2ccccc12` [UNC10245534, O=C1NC(=O)C(=Cc2cn(CCCOc3ccccc3)c3ccccc23)C(=O)N1Cc1ccco1], the IC50 is 24 µM.

Molecule `Cc1cccc(OCCCn2cc(C=C3C(=O)NC(=O)N(Cc4ccco4)C3=O)c3ccccc32)c1` [UNC10245535, Cc1cccc(OCCCn2cc(C=C3C(=O)NC(=O)N(Cc4ccco4)C3=O)c3ccccc23)c1] yielded an IC50 of 6.1 µM.

As to `O=C1NC(=O)N(Cc2ccco2)C(=O)C1=Cc1cn(CCCOc2ccccc2Cl)c2ccccc12` [UNC10245536, Clc1ccccc1OCCCn1cc(C=C2C(=O)NC(=O)N(Cc3ccco3)C2=O)c2ccccc12], the IC50 amounted to 12 µM.

In the case of `COc1ccccc1OCCn1cc(C=C2C(=O)NC(=O)N(Cc3ccco3)C2=O)c2ccccc21` [UNC10245537, COc1ccccc1OCCn1cc(C=C2C(=O)NC(=O)N(Cc3ccco3)C2=O)c2ccccc12], the IC50 was found to be 22 µM.

`COc1ccc(OCCn2cc(C=C3C(=O)NC(=O)N(Cc4ccco4)C3=O)c3ccccc32)cc1` [UNC10245538, COc1ccc(OCCn2cc(C=C3C(=O)NC(=O)N(Cc4ccco4)C3=O)c3ccccc23)cc1] registered an IC50 of 19 µM.

`COc1ccc(OCCCn2cc(C=C3C(=O)NC(=O)N(Cc4ccco4)C3=O)c3ccccc32)cc1` [UNC10245539, COc1ccc(OCCCn2cc(C=C3C(=O)NC(=O)N(Cc4ccco4)C3=O)c3ccccc23)cc1] had an IC50 of 18 µM.

Turning to `Cc1cc(OCCCn2cc(C=C3C(=O)NC(=O)N(Cc4ccco4)C3=O)c3ccccc32)cc(C)c1Cl` [UNC10245540, Cc1cc(OCCCn2cc(C=C3C(=O)NC(=O)N(Cc4ccco4)C3=O)c3ccccc23)cc(C)c1Cl], inhibition was half-maximal at 23 µM (IC50).

Consider `Cc1cc(C)cc(OCCCn2cc(C=C3C(=O)NC(=O)N(Cc4ccco4)C3=O)c3ccccc32)c1` [UNC10245541, Cc1cc(C)cc(OCCCn2cc(C=C3C(=O)NC(=O)N(Cc4ccco4)C3=O)c3ccccc23)c1], for which the IC50 amounted to 4.3 µM.

Molecule `COc1cccc(OCCn2cc(C=C3C(=O)NC(=O)N(Cc4ccco4)C3=O)c3ccccc32)c1` [UNC10245542, COc1cccc(OCCn2cc(C=C3C(=O)NC(=O)N(Cc4ccco4)C3=O)c3ccccc23)c1] came in with an IC50 of 50 µM.

For orientation: IC50 means the point on the concentration scale where inhibition reaches its midpoint.

The values above are taken from publication PMC11219766 (Nature Communications, 2024).
